In patent publication US20140094365A1, “SYNERGISTIC WEED CONTROL FROM APPLICATIONS OF AMINOCYCLOPYRACHLOR AND TRICLOPYR” (Dow AgroSciences LLC, priority 2012, published 2014):

Experiments:
Assay in all cases: Field trial, post-emergence foliar weed control
Format in all cases: in vivo
[1] = test system: redmaids (Calandrinia ciliata, CLNCM); settings: 17 DAYS
Excerpt: (§1) The (a) aminocyclopyrachlor or an agriculturally acceptable salt or ester thereof is mixed with or applied in combination with (b) triclopyr or an agriculturally acceptable salt or ester thereof in an amount sufficient to induce a synergistic herbicidal effect. […] As described in the Herbicide Handbook of the Weed Science Society of America, Ninth Edition, 2007, p. 429, “‘synergism’ [is] an interaction of two or more factors such that the effect when combined is greater than the predicted effect based on the response to each factor applied separately.” Synergistic in the herbicide context can mean that the use of (a) and (b) as defined above results in an increased weed control effect compared to the weed control effects that are possible with the use of (a) or (b) alone. In some embodiments, the damage or injury to the undesired vegetation caused by the compositions and methods disclosed herein is evaluated using a scale from 0% to 100%, when compared with the untreated control vegetation, wherein 0% indicates no damage to the undesired vegetation and 100% indicates complete destruction of the undesired vegetation. […] 22 (1967)
(§2) Field trials were conducted with applications made to established grassland with naturally occurring weed populations, or applications were made to bare ground with naturally occurring weed populations. The target plants were treated with post emergence foliar applications after they had reached at least 3-4 leaves or at least 2-5 inches in height. All treatments were applied using a randomized complete block trial design, with 3-4 replications per treatment.
(§3) Treatments consisted of aminocyclopyrachlor in acid form and triclopyr-butotyl, each in water and applied alone or in combination. Spray solutions were prepared using an appropriate amount of dilution to form a 2 liter (L) aqueous spray solution with active ingredients in single and two way combinations. Formulated compounds were applied to the plant material with a backpack sprayer equipped with 8003 or Turbojet nozzles calibrated to deliver 187 L/ha to 400 L/ha at a spray height of 18-20 inches (43-50 centimeters (cm)) above average plant canopy.
(§4) The treated plants were buckhorn plantain (Plantago lanceolata, PLALA), calvary clover (Medicago arabica, MEDAB), shepherd's purse (Capsella bursa-pastoris, CAPBP), common fiddleneck (Amsinckia intermedia, AMSIN), redmaids (Calandrinia ciliata, CLNCM), and broomweed (Sida acuta, SIDAC). The treated plots and control plots were rated blind at various intervals after application. Ratings were based on a scale of 0-100%, as discussed above, wherein 0% indicates no damage to the undesired vegetation and 100% indicates complete destruction of the undesired vegetation
(§5) Colby's equation was used to determine the herbicidal effects expected from the mixtures, as described above. The results were measured at 7 days, 14 days, 17 days, 24 days, 27 days, 60 days, and 72 days after the first application of the compositions. […] The herbicide tank mix combinations tested, application rates and ratios employed, plant species tested, and results are given below.

[2] = test system: buckhorn plantain (Plantago lanceolata, PLALA)
Excerpt: as §1, §2, §3, §4, §5

[3] = test system: calvary clover (Medicago arabica, MEDAB)
Excerpt: as §1, §2, §3, §4, §5

[4] = test system: broomweed (Sida acuta, SIDAC)
Excerpt: as §1, §2, §3, §4, §5

[5] = test system: common fiddleneck (Amsinckia intermedia, AMSIN)
Excerpt: as §1, §2, §3, §4, §5

[6] = test system: shepherd's purse (Capsella bursa-pastoris, CAPBP)
Excerpt: as §1, §2, §3, §4, §5

SMILES: Nc1nc(C2CC2)nc(C(=O)O)c1Cl [Aminocyclopyrachlor, 6-amino-5-chloro-2-cyclopropylpyrimidine-4-carboxylic acid]
- Mean % weed control ([1]; 35 g ae/ha alone): 16.67%
- Mean % weed control ([2]; 14 DAYS, 18 g ae/ha alone): 37.5%
- Mean % weed control ([2]; 14 DAYS, 35 g ae/ha alone): 40%
- Mean % weed control ([2]; 27 DAYS, 18 g ae/ha alone): 22.5%
- Mean % weed control ([2]; 27 DAYS, 35 g ae/ha alone (aminocyclopyrachlor)): 35%
- Mean % weed control ([3]; 7 DAYS, 18 g ae/ha alone): 20%
- Mean % weed control ([3]; 14 DAYS, 18 g ae/ha alone): 47.5%
- Mean % weed control ([3]; 14 DAYS, 35 g ae/ha alone): 47.5%
- Mean % weed control ([3]; 27 DAYS, 18 g ae/ha alone): 27.5%
- Mean % weed control ([4]; 60 DAYS, 150 g ae/ha alone): 53%
- Mean % weed control ([4]; 72 DAYS, 150 g ae/ha alone): 60%
- Mean % weed control ([5]; 17 DAYS, 35 g ae/ha alone): 0%
- Mean % weed control ([5]; 24 DAYS, 35 g ae/ha alone): 0%
- Mean % weed control ([6]; 17 DAYS, 18 g ae/ha alone): 23.33%
- Mean % weed control ([6]; 24 DAYS, 18 g ae/ha alone): 20%

SMILES: CCCCOCCOC(=O)COc1nc(Cl)c(Cl)cc1Cl [Triclopyr-butotyl]
- Mean % weed control ([1]; 70 g ae/ha alone): 20%
- Mean % weed control ([1]; 140 g ae/ha alone): 23.33%
- Mean % weed control ([2]; 14 DAYS, 70 g ae/ha alone): 7.5%
- Mean % weed control ([2]; 27 DAYS, 35 g ae/ha alone (triclopyr-butotyl)): 2.5%
- Mean % weed control ([2]; 27 DAYS, 70 g ae/ha alone): 3.75%
- Mean % weed control ([3]; 7 DAYS, 70 g ae/ha alone): 13.75%
- Mean % weed control ([3]; 14 DAYS, 70 g ae/ha alone): 10%
- Mean % weed control ([3]; 27 DAYS, 35 g ae/ha alone): 2.5%
- Mean % weed control ([3]; 27 DAYS, 70 g ae/ha alone): 5%
- Mean % weed control ([4]; 60 DAYS, 360 g ae/ha alone): 2%
- Mean % weed control ([4]; 72 DAYS, 360 g ae/ha alone): 10%
- Mean % weed control ([5]; 17 DAYS, 70 g ae/ha alone): 0%
- Mean % weed control ([5]; 24 DAYS, 70 g ae/ha alone): 0%
- Mean % weed control ([6]; 17 DAYS, 35 g ae/ha alone): 40%
- Mean % weed control ([6]; 17 DAYS, 70 g ae/ha alone): 46.67%
- Mean % weed control ([6]; 24 DAYS, 35 g ae/ha alone): 40%
- Mean % weed control ([6]; 24 DAYS, 70 g ae/ha alone): 58.33%
